These results are taken from patent US9327020B2, “Trisaccharide derivates, and their use as adjuvants” (Immunovo B.V., priority 2010, dated 2016).

Common to all, as to assay type: in vivo, rat
One data set has as its system GnRH. The experiment in a line: GnRH specific antibody titers by ELISA in serum of rats immunized with GnRH-KLH conjugate plus adjuvant. The note with it: for GnRH antibody titers, dose dependence: male Wistar rats, adjuvant 0.008-8 mg per dose, GnRH-KLH conjugate, FIG. 4A-B; for GnRH antibody titers versus squalane emulsion only (NS): rats that received 8 mg saccharide compound, FIG. 4C; for GnRH antibody titers versus adjuvant without saccharide (NS, group 11): rats treated with 0.08-8 mg sulpho-lipo-trisaccharide. The protocol: (§1) The sulpho-lipo based adjuvants were tested in different doses varying from 0.008-8 mg per dose. The adjuvants were tested in combination with a GnRH-KLH conjugate with 0.7 μg conjugated GnRH per dose. Adjuvanticity of the adjuvants was compared with the positive control adjuvant, sulpho-lipo-sucrose (disaccharide with one sulphate ester group and seven lauroyl acid ester groups, S1L7-Su) and with negative control adjuvant consisting of an squalane-in-water emulsion without saccharide compound and one group receiving PBS only.
Vaccines 1-13 were formulated by adding equal volume of adjuvant (comprising the saccharide compounds as shown in table 2) to the water phase (containing 0.7 μg conjugated GnRH). Vaccine 14 consists of PBS only. The following vaccines were prepared:
(§2) Male Wistar rats, 10 weeks of age, were housed with 3 rats per cage. Rats had ad libitum access to food en water. Rats were immunized at day 0, 14 and 28, according to the experimental design (Table 2) with 400 μl vaccine comprising 200 μl water phase and 200 μl adjuvant. Two intramuscular injections (100 μl each) were injected at the left and right inner thigh and 2×100 μl was injected subcutaneously in the neck region. Each group consists of 5 rats.
(§3) Blood samples for serum were collected from all animals prior to the immunizations and at day 41 and 56
GnRH specific antibodies were measured by ELISA. Plates (96 wells) were precoated with 0.2% glutardialdehyde in phosphate buffer (pH 5) for 3 hours at room temperature, washed with 0.1 M phosphate buffer (pH 8) and coated with 100 μl per well of a solution containing 10 μg GnRH (Pepscan Presto, Lelystad, The Netherlands) per ml phosphate buffer (pH 8) and incubated for 3 hours at 37° C. Coated plates were washed with 0.05% Tween-80. Serum samples were diluted (1/10) in PEM (1% Tween-80 with 4% horse serum). This dilution was further diluted in the 96-well plate (100 μl per well, 8 steps) and incubated 1 hour at 37° C. After washing with 0.05% Tween-80, 100 μl of goat-anti-rat antiserum conjugated with peroxidase in PEM was added to the wells. Plates were incubated for 1 h at 37° C. and washed 12 times with 0.05% Tween-80. Subsequently, 150 μl of a substrate solution containing 2,2-azino-bis-(3-benzthiazoline-6-sulphonic acid) (ABTS) plus H2O2 was added to the wells of the plates. Plates were incubated for 45 minutes at ambient room temperature and absorbance was measured at 405 nm. Antibody titer was expressed as the 10 log of the dilution factor that gives an optical density of 4 times background (approx. 100).
In general terms: ELISA stands for enzyme-linked immunosorbent assay.

The next data set deals with testosterone. The experiment in a line: Serum testosterone levels (Testosterone EIA) of immunized rats. The method, then:
as §1, §2, §3
Serum testosterone levels were measured using a commercially available Testosterone EIA (Beckman Coulter, Woerden, The Netherlands) according to the instructions of the manufacturer.

Data set [1] in a line: Injection site reactions (tissue swelling) after immunization. The note with it: 8 mg. The protocol:
as §2
Before vaccination the injection sites were assessed for the presence of abnormalities or existing local reactions. If such abnormalities or local reactions were absent, the animal was injected on that site. After each immunization, injection sites were inspected for tissue swelling. Size of subcutaneous injection sites was measured (diameter in mm). Since the intramuscular injection site reactions in the hind leg is difficult to determine, only the presence of intramuscular injections sites (tissue swelling) was determined and expressed in arbitrary values (present=10 mm, not present=0 mm) Scores of injection site reactions were added up per rat for the four injection sites at each inspection, means per group were calculated The results thereof are presented in FIG. 7.

The nature of data set [2]: Rise of mean body temperature (rectal) after immunization. The note with it: 8 mg; for Mean body temperature (MBT): FIG. 6C. The method, then: as §2
At least once daily clinical observations were made in all animals. Mean body temperature (MBT) was determined for all animals before and after each immunization by rectal temperature. Mean body temperature per group (MBT) are depicted as to preimmunization levels FIG. 6.

Setting [3] is: from 0.08 mg sulpho-lipo-trisaccharide onwards, FIG. 5A-B.

As to “Sulpho-Lipo-Maltotriose [Example S1L10-Ma]”, in the data set with GnRH, the “GnRH antibody titers, dose dependence” value is “dose dependent antibody titers against GnRH”; the “GnRH antibody titers versus squalane emulsion only (NS)” value was “substantially higher”; the “GnRH antibody titers versus adjuvant without saccharide (NS, group 11)” value is recorded as “substantially higher”. In the data set on testosterone (setting [3]), the Serum testosterone levels entry is on record as “dramatic decline of serum testosterone levels”.
In the case of sulpho-lipo-sucrose [Example S1L7-Su-8], the “Injection site reactions at final inspection” value in data set [1] (5 days after immunization) is listed as “still significant injection site reactions were present”. For the same compound, in data set [1] (FIG. 7C), the “Injection site reactions, course of size” value is listed as “increased in size up to day 4” and the “Injection site reactions, size relative to sulpho-lipo-trisaccharides” value was “more than 4 times”. For the same compound, the “Mean body temperature (MBT)” value in data set [2] (3 hours post vaccination) is “slightly higher increase in MBT than the trisaccharide compounds”. Also, the “Mean body temperature (MBT)” value in data set [2] (21 hours after vaccination) is “still increased”.
As to “Sulpho-Lipo-Raffinose [Example S1L10-Ra]”, in the data set on GnRH, the “GnRH antibody titers, dose dependence” value is given as “dose dependent antibody titers against GnRH”; the “GnRH antibody titers versus squalane emulsion only (NS)” value is recorded as “substantially higher”; the “GnRH antibody titers versus adjuvant without saccharide (NS, group 11)” value is on record as “substantially higher”. The Serum testosterone levels result with testosterone (setting [3]) is “dramatic decline of serum testosterone levels”.
In the case of `CCCCCCCCCCCC(=O)OC[C@H]1O[C@H](OC[C@H]2O[C@H](O[C@]3(COC(=O)CCCCCCCCCCC)O[C@H](COC(=O)CCCCCCCCCCC)[C@@H](OC(=O)CCCCCCCCCCC)[C@@H]3OC(=O)CCCCCCCCCCC)[C@H](OC(=O)CCCCCCCCCCC)[C@@H](OC(=O)CCCCCCCCCCC)[C@@H]2OC(=O)CCCCCCCCCCC)[C@H](OC(=O)CCCCCCCCCCC)[C@@H](OC(=O)CCCCCCCCCCC)[C@H]1OC(=O)CCCCCCCCCCC` [Example L11-Ra, Lipo-Raffinose], in the data set with GnRH, the “GnRH antibody titers versus squalane emulsion only (NS)” value was “substantially higher”. In data set [1], the “Adverse effects at the site of injection” value is “did not induce any adverse effects at the site of injection”. Also, the “Mean body temperature (MBT), any increase” value in data set [2] (after immunization) is reported as “did not induce any increase in MBT”. Further, the Serum testosterone levels result with testosterone (8 mg, FIG. 5C) is recorded as “induced decreasing testosterone levels”.
